Laboratory results taken from US5726167A, “Inhibition of phosphatidylinositol 3-kinase with viridin, demethoxyviridin, viridiol, demethoxyviridiol, virone, wortmannolone, and analogs thereof” (Eli Lilly and Company, priority 1997, dated 1998).

Target: bovine brain purified PI 3-kinase
Test: Assay of purified PI 3-kinase activity
Type: biochemical
Conditions: purified bovine brain PI 3-kinase, phosphatidylinositol substrate, 20 μM ATP
Experimental: In another, preferred, method, PI 3-kinase was prepared from bovine brain. Two bovine brains (wet weight about 900 g) were obtained from a local slaughterhouse within minutes of slaughter, packed on ice, and homogenized within one hour. Brains were trimmed of excess fat and blood vessels and then homogenized using a Tekmar Tissuemizer (Cincinnati, Ohio) at 4° C. in 20 mM of Tris(pH 8.3) containing 250 mM of sucrose, 6 mM of β-mercaptoethanol, 1 μg/ml of leupeptin, 1 μg/ml of pepstatin A, 0.4 mM of PMSF, and 1 mM of MgCl2.
Following centrifugation for 60 minutes at 10,000×g, the pH of the supernatant (about 1200 mL) was lowered to 5.75 using dropwise addition of 1M acetic acid at 4° C. After stirring for an additional 15 minutes at 4° C., the solution was centrifuged for 60 minutes at 13,500×g. The supernatant was discarded. Pellets were resuspended in Buffer A (20 mM of Tris, pH 8.3, containing 6 mM of β-mercaptoethanol, 0.1 mM of ethylene glycol-bis(β-aminoethyl ether) N,N,N',N'-tetraacetic acid (EGTA), 1 μg/mL of leupeptin, 1 μg/mL of pepstatin A, and 1 mM of MgCl2), and loaded onto a Fast Flow Q Sepharose column (300 ml) at a flow rate of 5 mL/minute at 4° C. […]
PI 3-kinase activity was measured as previously described by Matter, W. F., et al., Biochemical and Biophysical Research Communications, 186: 624-631 (1992). […]

## COC1C(=O)c2coc3c2[C@@](C)(c2ccc4c(c2C3=O)CCC4=O)[C@@H]1O (some centres unmarked) [viridin]
  one-half maximal inhibition, IC50: 0.85 ng/mL
Molar value in brackets, read-out: one-half maximal inhibition, IC50
  IC50: 2.4 nM
